Experimental findings from patent publication US11877553B2, “Effects of a plurality of mutations to improve herbicide resistance/tolerance in rice” (priority 2017, dated 2024) are described below.

Holding throughout (type): in vivo, rice
For series [1], the system named is single trait mutant lines (P1003A205V, R0146G654E). In words: 16GH-T7 greenhouse Imazamox trial, injury in single trait mutant lines. The note with it: Imazamox 0.5× to 4× at about preflood stage, alone or 2 weeks after 1× Imazethapyr. From the text:
(§1) FIG. 3A to FIG. 3I illustrate the results of Example 1: FIG. 3A control; FIG. 3B 0.5× Imazamox; FIG. 3C 1× Imazamox; FIG. 3D 2× Imazamox; FIG. 3E 4× Imazamox; FIG. 3F 1× Imazethapyr+0.5× Imazamox; FIG. 3G 1× Imazethapyr+1× Imazamox; FIG. 3H 1× Imazethapyr+2× Imazamox; FIG. 3I 1× Imazethapyr+4× Imazamox; Pots L to R: LF2-RTC2/LM1-RTC1, LF1-RTC2/LM1-RTC1, LF3-RTC2\LM4-RTC1, mutated line P1003A205V, mutated line R0146G654E, sensitive control commercial variety Cypress, commercial hybrid CLXL745.
(§2) Trial consisted of 2 treatment regimens with Imazamox applications at approximately the preflood stage with rates of 0.5×, 1×, 2×, or 4×, either alone or 2 weeks following application of 1× Imazethapyr.
(§3) FIG. 4 Representative Pots 4 Weeks Post Application of Imazamox.

Series [2] deals with RT IMI hybrids (LF2-RTC2/LM1-RTC1, LF1-RTC2/LM1-RTC1, LF3-RTC2\LM4-RTC1). Description: 16GH-T7 greenhouse Imazamox trial, injury in RT IMI hybrids. The note with it: Imazamox 0.5×, 1×, 2× or 4× at about preflood stage, alone or 2 weeks after 1× Imazethapyr, any treatment.
Text: as §1, §2, §3

The test system of series [3] is heterozygous A205V hybrids. The settings on record: 2 leaf and preflood application. The text has this: Trial: 2 leaf and preflood application of Imazethapyr or Kifix™ (imazapic/imazapir) herbicide on materials converted with RiceTec IMI traits and commercial IMI control.
For a further series, the system named is A205V-G654E hybrids. Description: 15SA-T9 IMI conversion efficacy trial. The settings on record: 2 applications (2 leaf and preflood). Here is the method:
2 leaf and preflood application of IMI herbicide on materials converted with RiceTec IMI traits and controls. All males included RTC1 (A205V) in their genome. Females with RTC2 (G654E) were not included due to limited seed numbers. Females were tested separately in 15GH-T8 using potted plant replications.

A further series has as its system G654E/A205V hybrids. Description: 16-T7 log sprayer trial, Imazethapyr, G654E/A205V hybrids. The settings on record: single application, half-step log sprayer, rates 16× to 1/128×; either hybrid.
Series [4] has as its system G654E (RTC2) homozygous line. In words: 16-T7 log sprayer trial, Imazethapyr, homozygous G654E line. The note with it: single application, half-step log sprayer, rates 16× to 1/128×.
Series [5] concerns homozygous A205V (RTC1) mutant line (P1003A205V). Description: 16-T7 log sprayer trial, Imazethapyr, homozygous A205V line. The note with it: single application, all tested rates 8× (48 oz/acre) and lower.

In the case of `COCc1cnc(C2=NC(C)(C(C)C)C(=O)N2)c(C(=O)O)c1` (stereo not shown) [Imazamox, imazamox], the injury entry in series [1] is “injury was observed”; in series [2], “No injury”.
In the case of `CCc1cnc(C2=NC(C)(C(C)C)C(=O)N2)c(C(=O)O)c1` (stereo not shown) [Imazethapyr, imazethapyr], the “tolerance as compared to the A205V-G654E hybrids” value in series [3] is given as “reduced tolerance”. The injury rates result with A205V-G654E hybrids is on record as “very low injury rates”. Also, the entries for the “% of injury 3 weeks post 3-4 leaf application” value (in the series on G654E/A205V hybrids; in series [4]; in series [5]) were “no observed injury”, “lower than expected” and “below 10%”, respectively.
